Source: PubChem BioAssay (NCI)
Values joined by “and” are separate entries in the source; they are usually repeats but may differ in a detail not shown here. Equal values may be shown once.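 Cultured in 96-well plates, cells were exposed to test compound for 48 hours across five concentrations. The concentration for 50% growth inhibition is given as GI50. TGI denotes the concentration required for complete inhibition of growth.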

Key:
Test in all cases: DTP human tumour cell line panel, 48 h
A498 renal = test system: A498 renal
CAKI-1 renal = test system: CAKI-1 renal
CCRF-CEM leukemia = test system: CCRF-CEM leukemia
KM12 colon = test system: KM12 colon
MCF7 breast = test system: MCF7 breast
NCI-H226 lung = test system: NCI-H226 lung
OVCAR-3 ovarian = test system: OVCAR-3 ovarian
OVCAR-8 ovarian = test system: OVCAR-8 ovarian
SK-MEL-2 melanoma = test system: SK-MEL-2 melanoma
SK-MEL-28 melanoma = test system: SK-MEL-28 melanoma

Compound	GI50 (A498 renal)	TGI (A498 renal)	GI50 (CAKI-1 renal)	TGI (CAKI-1 renal)	GI50 (CCRF-CEM leukemia)	TGI (CCRF-CEM leukemia)	GI50 (KM12 colon)	TGI (KM12 colon)	GI50 (MCF7 breast)	TGI (MCF7 breast)	GI50 (NCI-H226 lung)	TGI (NCI-H226 lung)	GI50 (OVCAR-3 ovarian)	TGI (OVCAR-3 ovarian)	GI50 (OVCAR-8 ovarian)	TGI (OVCAR-8 ovarian)	GI50 (SK-MEL-2 melanoma)	TGI (SK-MEL-2 melanoma)	GI50 (SK-MEL-28 melanoma)	TGI (SK-MEL-28 melanoma)
CN(CCCCCl)P(=O)(OCCS(=O)(=O)CC(NC(=O)CCC(N)C(=O)O)C(=O)NC(C(=O)O)c1ccccc1)OCC1OC(n2ccc(N)nc2=O)C(O)C1O (stereo not given)	> 55.1 µM	> 75 µM	11 µM	> 75 µM	0.632 µM	> 75 µM	27.4 µM	> 75 µM	3.27 µM	> 75 µM	> 70.7 µM	> 75 µM	33.7 µM	> 75 µM	5.4 µM	> 75 µM	> 75 µM	> 75 µM	26.2 µM	> 75 µM
CC(=O)/C(=C/c1ccccc1)C(=O)CC(C)C	19.4 µM	38.8 µM	7.56 µM	20.6 µM	3.96 µM	> 100 µM	2.25 µM	5.01 µM	4.5 µM	18.5 µM	25.1 µM	71.4 µM	4.69 µM	15.9 µM	17.6 µM	53 µM	24.5 µM	60.7 µM	11.5 µM	24.9 µM
COc1cc2c3cc1Oc1c(OC)c(OC)cc4c1C(=NCC4)Cc1ccc(cc1)Oc1cc(ccc1O)C[C@H]3N(C)CC2	–	36.7 µM	–	49.1 µM	–	> 100 µM	–	29.8 µM	–	70 µM	–	61.2 µM	–	39.4 µM	–	32 µM	–	31.1 µM	–	30.3 µM
O=C(CCl)NCCNc1nccc(Nc2ccc(S(=O)(=O)Nc3ccccn3)cc2)n1	3.67 µM	13.1 µM	2.31 µM	10.4 µM	2.19 µM	9.03 µM	3.12 µM	11.6 µM	1.78 µM	5.61 µM	3.34 µM	28.3 µM	1.77 µM	6.17 µM	3.84 µM	> 100 µM	2.33 µM	7.83 µM	2.97 µM	13.5 µM
CCN(CC)CCCC(C)Nc1ccnc2cc(Cl)ccc12 (stereo not given)	> 100 µM	> 100 µM	28.8 µM	79.7 µM and 55.7 µM	38.8 µM	> 100 µM	79.5 µM	> 100 µM	63.9 µM	> 100 µM and 42.3 µM	> 100 µM	> 100 µM	22.3 µM	75.6 µM and > 100 µM	57.5 µM	> 100 µM	> 100 µM	> 100 µM and 14.9 µM	39.9 µM	> 100 µM and 42.3 µM
CC1=CC(C)=NN=C(N)N1S(=O)(=O)c1cc(C)c(Cl)cc1SCc1ccccc1	> 100 µM	> 100 µM	> 100 µM	> 100 µM	9.15 µM	> 100 µM	34.6 µM	> 100 µM	13.3 µM	> 100 µM	58.5 µM	> 100 µM	22.6 µM	> 100 µM	56.6 µM	> 100 µM	37.2 µM	> 100 µM	88.5 µM	> 100 µM
CSc1c(C2=C(c3cn(C)c4ccccc34)C(=O)NC2=O)c2ccccc2n1C	0.376 µM	2.11 µM	0.741 µM	> 20.4 µM	0.793 µM	> 17 µM	0.843 µM	> 25 µM	0.805 µM	> 25 µM	3.21 µM	> 25 µM	0.629 µM	2 µM	1.56 µM	> 25 µM	0.689 µM	5.37 µM	1.85 µM	> 25 µM
CCCCC(CCCCCC(CCCC)NCc1ccc2c(c1)OCO2)NCc1ccc2c(c1)OCO2 (stereo not given)	1.49 µM	2.83 µM	0.669 µM	1.76 µM	0.524 µM	2.58 µM	0.232 µM	0.51 µM	0.273 µM	0.744 µM	1.91 µM	4.02 µM	0.936 µM	2.25 µM	0.393 µM	0.967 µM	0.336 µM	0.835 µM	0.188 µM	0.337 µM
Cc1ccc2oc(=O)cc(/C(=C3/C=CC=N3)c3ccc[nH]3)c2c1	0.269 µM	0.92 µM	0.53 µM	10.6 µM	0.29 µM	4.01 µM	0.344 µM	1.71 µM	0.348 µM	4.23 µM	0.753 µM	4.58 µM	0.271 µM	0.707 µM	0.304 µM	1.07 µM	0.74 µM	2.89 µM	0.611 µM	3.46 µM
COc1cc(Oc2c(C)c(Cl)c(OC)c(Cl)c2OC)c2c(c1Cl)COC2=O	–	> 100 µM	–	> 100 µM	–	> 100 µM	–	> 100 µM	–	86.2 µM	–	> 100 µM	–	–	–	> 100 µM	–	–	–	> 100 µM
CCCCCCCCCCCCCCCCCc1nccn1CCOCCO	4.82 µg/mL	11 µg/mL	6.3 µg/mL	13.1 µg/mL	5.18 µg/mL	12.4 µg/mL	6.06 µg/mL	11.4 µg/mL	5.65 µg/mL	11.4 µg/mL	4.36 µg/mL	10 µg/mL	4.74 µg/mL	9.64 µg/mL	5.64 µg/mL	11.6 µg/mL	7.58 µg/mL	14 µg/mL	6.22 µg/mL	11.4 µg/mL
COc1ccc(C#Cc2ccc(=O)oc2-c2cc(OC)c(OC)c(OC)c2)cc1O	10.1 µM	> 83.1 µM	7.6 µM	> 100 µM	6.95 µM	> 100 µM	3.54 µM	> 100 µM	0.666 µM	> 100 µM	> 34 µM	> 100 µM	1.81 µM	28.5 µM	10.6 µM	> 100 µM	6.74 µM	> 100 µM	18.2 µM	> 100 µM
O=C(CC1(O)C(=O)N(Cc2ccccc2)c2ccc(Cl)cc21)c1ccc(C(=O)NCC2CCC3(CC2)OOC2(CCCCC2)OO3)cc1 (stereo not given)	1.77 µM	4.13 µM	0.418 µM	0.864 µM	0.274 µM	0.662 µM	0.268 µM	0.782 µM	1.81 µM	66.2 µM	1.72 µM	9.06 µM	0.197 µM	0.419 µM	0.295 µM	0.758 µM	1.87 µM	4.41 µM	8.35 µM	> 100 µM
Cn1c(=O)c(Oc2ccc(F)cc2F)cc2cnc(NC(C)(C)CO)nc21	> 15.9 µM	> 25 µM	> 25 µM	> 25 µM	> 25 µM	> 25 µM	> 25 µM	> 25 µM	> 25 µM	> 25 µM	> 25 µM	> 25 µM	> 25 µM	> 25 µM	> 25 µM	> 25 µM	> 25 µM	> 25 µM	> 25 µM	> 25 µM
Oc1ccc(Nc2ccc3ccccc3c2)cc1	4.1 µM	23.2 µM	1.52 µM	5.93 µM	7.69 µM	> 100 µM	2.94 µM	10 µM	15.8 µM	> 100 µM	19 µM	49.5 µM	5.66 µM	19 µM	6.49 µM	56.7 µM	15.3 µM	46 µM	14.1 µM	> 100 µM
CC(=O)Nc1cc2cc(N)ccc2oc1=O	–	> 100 µM	–	> 100 µM	–	> 100 µM	–	> 100 µM	–	> 100 µM	–	> 100 µM	–	> 100 µM	–	> 100 µM	–	> 100 µM	–	> 100 µM
N#Cc1c(NCc2ccccc2)nc(NCc2ccccc2)c(C#N)c1-c1ccc(O)cc1	24.9 µM	63.5 µM	10.7 µM	44.8 µM	27.4 µM	> 100 µM	16.8 µM	59.7 µM	39.7 µM	> 100 µM	14.3 µM	67.1 µM	29.6 µM	87.4 µM	58.1 µM	> 100 µM	41.1 µM	90.7 µM	66.7 µM	> 100 µM
COC1C(O)CC(OC2CC(OC3CC(O[C@@H]4C(=O)c5c(cc6cc(OC7CC(OC8CC(O)C(O)C(C)O8)C(O)C(C)O7)c(C)c(O)c6c5O)CC4[C@H](OC)C(=O)O)OC(C)C3O)OC(C)C2O)OC1C (stereo not given in full)	0.725 µM	2.6 µM	2.6 µM	> 33.3 µM	3.57 µM	> 33.3 µM	1.89 µM	> 33.3 µM	0.928 µM	> 33.3 µM	1.15 µM	9.72 µM	2.06 µM	> 33.3 µM	2.27 µM	> 33.3 µM	1.47 µM	10.6 µM	1.48 µM	11.7 µM
BrC(Br)=C1C(=C(Br)Br)C(Br)C1Br (stereo not given)	–	3.38 µM	–	0.898 µM	–	1.6 µM	–	2.15 µM	–	1.31 µM	–	0.67 µM	–	2.15 µM	–	5.46 µM	–	7.7 µM	–	3.06 µM
O=C(/C=C/c1ccc(Cl)cc1)c1ccccc(=O)c1O	–	36 µM	–	2.79 µM	–	0.773 µM	–	6.45 µM	–	19.8 µM	–	5.45 µM	–	19.8 µM	–	> 100 µM	–	11.8 µM	–	26.4 µM
COc1ccc(C=Nc2c(C(=O)Nc3cccc(Cl)c3C)sc3nc(C)c(C(=O)/C=C/c4ccc(OC)cc4)cc23)cc1	0.196 µM	2.49 µM	0.652 µM	> 50 µM	0.819 µM	> 50 µM	0.894 µM	> 43.9 µM	0.293 µM	> 50 µM	0.621 µM	11.7 µM	0.267 µM	5.95 µM	1.38 µM	> 50 µM	0.98 µM	36.1 µM	0.288 µM	> 50 µM
COC(=O)c1ccc2c(c1)C(=O)c1c-2n(CCCCl)c(=O)c2cc([N+](=O)[O-])ccc12	> 100 µM	> 100 µM	65.6 µM	> 100 µM	52.8 µM	> 100 µM	> 100 µM	> 100 µM	52 µM	> 100 µM	> 100 µM	> 100 µM	96.6 µM	> 100 µM	> 100 µM	> 100 µM	> 100 µM	> 100 µM	> 100 µM	> 100 µM
CCCCOC(=O)c1ccc(N)cc1	33.6 µM	> 100 µM	11.4 µM	> 100 µM	48.2 µM	> 100 µM	29.8 µM	> 100 µM	74.6 µM	> 100 µM	63.6 µM	> 100 µM	68 µM	> 100 µM	> 100 µM	> 100 µM	> 100 µM	> 100 µM	> 100 µM	> 100 µM
NC(=NCc1ccccc1)C(N=Nc1ccccc1)C(=O)NCc1ccccc1 (stereo not given)	6.17 µM	23 µM	3.44 µM	15.2 µM	3.54 µM	84.4 µM	2.04 µM	4.65 µM	12 µM	32 µM	21.3 µM	52.6 µM	1.93 µM	3.75 µM	3.56 µM	15.2 µM	–	–	20.4 µM	45.7 µM
O=C1C(Cl)=C(Nc2ccc(Nc3ccccc3)c(NC3=C(Cl)C(=O)c4ccccc4C3=O)c2)C(=O)c2ccccc21	0.875 µM	14.4 µM	5.36 µM	29 µM	3.71 µM	> 100 µM	–	–	5.31 µM	44 µM	16.7 µM	35.6 µM	1.69 µM	3.21 µM	4.08 µM	> 100 µM	–	–	32.9 µM	96.5 µM
C=C(CN1CCN(c2ccc(C(F)(F)F)cc2)CC1)c1ccc(C(=O)Nc2ccccc2N)cc1	7.67 µM	61.5 µM	6.08 µM	44 µM	–	–	7.64 µM	> 100 µM	10.9 µM	> 100 µM	7.51 µM	> 60.5 µM	12 µM	> 100 µM	6.95 µM	> 100 µM	> 100 µM	> 100 µM	> 100 µM	> 100 µM
